Test results taken from patent US7691601B2, “Medium for detecting and/or identifying of microorganisms” (priority 2003, dated 2010).

Experiments:
Salmonella Typhi = assay: Coloration of Salmonella Typhi colonies on detection medium; assay type: cell-based; set-up: key: 0=no coloration; 0.5=trace of coloration; 1=weak coloration; 2=strong coloration
Procedure: (§1) Preparation of the detection medium: A volume of 250 ml of detection medium is prepared from a powdered medium having the following composition:
(§2) Melting is carried out at 100° C., and the medium is autoclaved at 121° C. for 15 minutes. The additives are then added to the medium: Magenta C8 (500 mg/l; B-7102, BIOSYNTH, Staad, Switzerland); X-glucoside (75 mg/l; B-7250, BIOSYNTH, Staad, Switzerland); cefsulodine (10 mg/l; C 4786, Sigma, St Quentin Fallavier, France) and various concentrations of the inhibitor O,O-diethyl p-nitrophenyl phosphate (Paraoxon® ethyl; CAS No. 311-45-5; 36186, Riedel-de Haën, St Quentin Fallavier, France; 0; 1; 5 or 10 mg/l).
(§3) The various detection media thus obtained are then poured into Petri dishes.
(§4) Seeding of Salmonella bacteria: 10 μl of stools are deposited onto a Petri dish, this stool suspension is mixed or not mixed with 10 μl of a suspension of Salmonella (0.5 McF) and isolated as 3 dials on a Petri dish. Various […] and various Salmonella strains originating from the applicant's collection are used according to this protocol. The Petri dishes are incubated at 37° C. for 24 hours. The appearance of a coloration at the point of deposit of the stool (“deposit” column) and at the Salmonella colony (“colony” column) is read according to a semi-quantitative scale: • 0=no coloration • 0.5=trace of coloration • 1=weak coloration • 2=strong coloration The results obtained are given in Table 1.
as §2, with “O,O-dimethyl” for “O,O-diethyl”, “methyl;” for “ethyl;”, “950-35-6;” for “311-45-5; 36186,”, “5, 10, 25” for “0; 1; 5 or 10”
(§5) Seeding of Salmonella bacteria: The Petri dishes are inoculated, incubated and read as in Example 1.
(§6) Preparation of the detection medium: 250 ml of the medium of Example 1, in which the O,O-diethyl p-nitrophenyl phosphate is replaced with various concentrations of O,O-di-(2-chloroethyl)-O-(3-chloro-4-methylcoumarin-7-yl)phosphate (Haloxon®; CAS No. 321-55-1; R276995, Sigma, St Quentin Fallavier, France; 0; 1; 10; 100 or 1000 mg/l), are prepared according to the method of Example 1.
(§7) The various selection media thus obtained are then poured into Petri dishes.

free esterases in stools = assay: Coloration at the point of deposit of the stool on Candida detection medium; assay type: biochemical; details: summary in words
Procedure: as §1
(§8) Melting is carried out at 100° C., and the medium is autoclaved at 121° C. for 15 minutes. The additives are then added to the medium: Magenta C8 (500 mg/l; B-7102, BIOSYNTH, Staad, Switzerland); X-glucoside (75 mg/l; B-7250, BIOSYNTH, Staad, Switzerland); cefsulodine (10 mg/l; C 4786, Sigma, St Quentin Fallavier, France), and also the esterase inhibitor: • ? O,O-diethyl p-nitrophenyl phosphate: 5 mg/l • ? O,O-dimethyl p-nitrophenyl phosphate: 25 mg/l or • ? O,O-di-(2-chloroethyl)-O-(3-chloro-4-methylcoumarin-7-yl)phosphate: 75 mg/l
as §7
(§9) Seeding of yeast of the Candida genus: 10 μl of stools are deposited onto a Petri dish, and this stool suspension is mixed or not mixed with 10 μl of a suspension of Candida and isolated as 3 dials on a Petri dish. Various stools and various strains of Candida genus originating from the applicant's collection are used according to this protocol. The Petri dishes are incubated at 37° C. for 24 hours.
(§10) The appearance of a coloration at the point of deposit of the stool and in the Candida colonies is read according to a semi-quantitative scale: • 0=absence of coloration • 0.5=trace coloration • 1=weak coloration • 2=strong coloration.

[1] = Colonies column read for stool without added strain, Candida detection medium; set-up: key: 0=absence of coloration; 0.5=trace coloration; 1=weak coloration; 2=strong coloration; details: Table 4, no strain
Procedure: as §1, §8, §7, §9, §10

Candida dubliniensis [2] = assay: Coloration of Candida dubliniensis colonies on detection medium; assay type: cell-based; set-up: key: 0=no coloration; 0.5=trace of coloration; 1=weak coloration; 2=strong coloration
Procedure: as §1, §8, §7, §9, §10

Candida albicans = assay: Coloration of Candida albicans colonies on detection medium; assay type: cell-based; set-up: key: 0=no coloration; 0.5=trace of coloration; 1=weak coloration; 2=strong coloration; details: stool A
Procedure: as §1, §8, §7, §9, §10

Candida krusei = assay: Coloration of Candida krusei colonies on detection medium; assay type: cell-based; set-up: key: 0=absence of coloration; 0.5=trace coloration; 1=weak coloration; 2=strong coloration
Procedure: as §1, §8, §7, §9, §10

Salmonella bacteria = assay: Enzymes originating from the bacteria (Salmonella colonies), overall statement; assay type: cell-based; details: summary in words
Procedure: as §4, §6, §7, §5

Salmonella Paratyphi A = assay: Coloration of Salmonella Paratyphi A colonies on detection medium; assay type: cell-based; set-up: key: 0=no coloration; 0.5=trace of coloration; 1=weak coloration; 2=strong coloration
Procedure: as §1, §2, §3, §4, §6, §7, §5

Candida dubliniensis [3] = assay: Coloration of Candida dubliniensis colonies on detection medium; assay type: cell-based; set-up: key: 0=absence of coloration; 0.5=trace coloration; 1=weak coloration; 2=strong coloration; details: Table 4, 5 mg/l
Procedure: as §1, §8, §7, §9, §10

COP(=O)(OC)Oc1ccc([N+](=O)[O-])cc1 [O,O-dimethyl p-nitrophenyl phosphate]
greatly inhibited: Aspecific enzymatic reactions due to the presence of free enzymes (free esterases in stools)
0.5: Colonies coloration (Salmonella Typhi; Table 2, 5 mg/l, stool C) | Colonies coloration (Salmonella Typhi; Table 2, 5 mg/l, stool D) | Colonies coloration (Salmonella Typhi; Table 2, 10 mg/l, stool D) | Colonies coloration (Salmonella Typhi; Table 2, 25 mg/l, stool C) | Colonies coloration (Salmonella Typhi; Table 2, 25 mg/l, stool D) | Colonies coloration (Candida krusei; Table 4, 25 mg/l, stool A) | Colonies coloration (Candida krusei; Table 4, 25 mg/l, stool B)
1: Colonies coloration (Salmonella Typhi; Table 2, 10 mg/l, stool C) | Colonies coloration (Candida dubliniensis [2]; Table 4, 25 mg/l, stool A) | Colonies coloration (Candida dubliniensis [2]; Table 4, 25 mg/l, stool B) | Colonies coloration (Candida albicans; Table 4, 25 mg/l)
0: Colonies coloration ([1]; 25 mg/l, stool A) | Colonies coloration ([1]; 25 mg/l, stool B)

Cc1c(Cl)c(=O)oc2cc(OP(=O)(OCCCl)OCCCl)ccc12 [O,O-di-(2-chloroethyl)-O-(3-chloro-4-methylcoumarin-7-yl) phosphate]
1: Colonies coloration (Salmonella Typhi; Table 3, 1 mg/l, stool A) | Colonies coloration (Salmonella Typhi; Table 3, 1 mg/l, stool B) | Colonies coloration (Salmonella Typhi; Table 3, 10 mg/l, stool A) | Colonies coloration (Salmonella Typhi; Table 3, 10 mg/l, stool B) | Colonies coloration (Salmonella Typhi; Table 3, 100 mg/l, stool A) | Colonies coloration (Salmonella Typhi; Table 3, 100 mg/l, stool B) | Colonies coloration (Salmonella Typhi; Table 3, 1000 mg/l, stool A) | Colonies coloration (Salmonella Typhi; Table 3, 1000 mg/l, stool B) | Colonies coloration (Candida dubliniensis [2]; Table 4, 75 mg/l, stool A) | Colonies coloration (Candida dubliniensis [2]; Table 4, 75 mg/l, stool B) | Colonies coloration (Salmonella Paratyphi A; Table 3, 100 mg/l, stool A) | Colonies coloration (Salmonella Paratyphi A; Table 3, 100 mg/l, stool B) | Colonies coloration (Candida albicans; Table 4, 75 mg/l)
0: Colonies coloration ([1]; 75 mg/l, stool A) | Colonies coloration ([1]; 75 mg/l, stool B)
greatly inhibited: Aspecific enzymatic reactions due to the presence of free enzymes (free esterases in stools)
not inhibited: Enzymes originating from the bacteria (Salmonella bacteria)
2: Colonies coloration (Salmonella Paratyphi A; Table 3, 1 mg/l, stool A) | Colonies coloration (Salmonella Paratyphi A; Table 3, 1 mg/l, stool B) | Colonies coloration (Salmonella Paratyphi A; Table 3, 10 mg/l, stool A) | Colonies coloration (Salmonella Paratyphi A; Table 3, 10 mg/l, stool B)
0.5: Colonies coloration (Salmonella Paratyphi A; Table 3, 1000 mg/l, stool A) | Colonies coloration (Salmonella Paratyphi A; Table 3, 1000 mg/l, stool B) | Colonies coloration (Candida krusei; Table 4, 75 mg/l, stool A) | Colonies coloration (Candida krusei; Table 4, 75 mg/l, stool B)

CCOP(=O)(OCC)Oc1ccc([N+](=O)[O-])cc1 [O,O-diethyl p-nitrophenyl phosphate]
0.5: Colonies coloration (Candida dubliniensis [3]; stool A) | Colonies coloration (Candida dubliniensis [3]; stool B) | Colonies coloration (Candida krusei; Table 4, 5 mg/l, stool A) | Colonies coloration (Candida krusei; Table 4, 5 mg/l, stool B)
1: Colonies coloration (Salmonella Typhi; Table 1, 1 mg/l, stool A) | Colonies coloration (Salmonella Typhi; Table 1, 1 mg/l, stool B) | Colonies coloration (Salmonella Typhi; Table 1, 5 mg/l, stool A) | Colonies coloration (Salmonella Typhi; Table 1, 5 mg/l, stool B) | Colonies coloration (Salmonella Typhi; Table 1, 10 mg/l, stool A) | Colonies coloration (Salmonella Typhi; Table 1, 10 mg/l, stool B) | Colonies coloration (Salmonella Paratyphi A; Table 1, 1 mg/l, stool A) | Colonies coloration (Salmonella Paratyphi A; Table 1, 1 mg/l, stool B) | Colonies coloration (Salmonella Paratyphi A; Table 1, 5 mg/l, stool A) | Colonies coloration (Salmonella Paratyphi A; Table 1, 5 mg/l, stool B) | Colonies coloration (Salmonella Paratyphi A; Table 1, 10 mg/l, stool A) | Colonies coloration (Salmonella Paratyphi A; Table 1, 10 mg/l, stool B) | Colonies coloration (Candida albicans; Table 4, 5 mg/l)
0: Colonies coloration ([1]; 5 mg/l, stool A) | Colonies coloration ([1]; 5 mg/l, stool B)
greatly inhibited: Aspecific enzymatic reactions due to the presence of free enzymes (free esterases in stools)
